Test results: US7358255B2, “Therapeutic agent for keratoconjunctival disorder” (Santen Pharmaceutical Co., Ltd., priority 2003, dated 2008)

Experiments:
[1] = hydrochloride compared with free form; cited from earlier work
[2] = hydrochloride compared with free form; cited from earlier work; remark: listed apart in the source
[3] = test system: corneal damage in dry eye model (exorbital lacrimal gland removed); test: Healing effect test for corneal damage (dry eye model, fluorescein staining score); format: in vivo, male SD rats
Protocol: Healing Effect Test for Corneal Damage Using male SD rats, a dry eye model was produced according to the method of Fujihara et al. (Invest. Ophthalmol. Vis. Sci 42 (1): 96-100 (2001)). After producing the dry eye model, cure rate of a corneal damage was determined according to the method of Miyata et al. (Japanese Review of Clinical Ophthalmology, 48 (2): 183-188 (1994)). A male SD rat was systemically anesthetized by an interperitoneal administration of Nembutal in an amount of 35 mg/kg. Subsequently, exorbital lacrimal gland was removed, and corneal damage was induced over two months. Next, a 0.01% solution of the present compound dissolved in a physiological saline solution was instilled into one eye, while the physiological saline solution (control) was instilled into the other eye, respectively, six times per day for 7 days. On day 7 after initiating the instillation, impaired part of the cornea was stained with fluorescein. Score of upper, middle and lower parts of the cornea were assessed according to the following criteria on the extent of staining by fluorescein, respectively. […] Similar test was also conducted on normal eyes as described above to determine the mean value of total scores on each part described above. 0: No punctate staining 1: Scattered staining (punctate, separated staining) 2: Moderate staining (a part of punctate staining being adjacent) 3: Heavy staining (punctate, barely separated staining) Improvement ratio of the 0.01% eye drop administration group of the present compound is shown in Table 1 calculated on the basis of the mean value of total scores of the aforementioned respective parts in the group (control) administered with a physiological saline solution eye drop as a standard value (improvement ratio: 0%), according to the following calculating formula. Mean value of the scores was obtained by averaging 8 examples in each case. [formula]

In the case of `COc1ccc2nc(COc3ccc(CC4SC(=O)NC4=O)cc3)n(C)c2c1` (centres unmarked) [5-[4-(6-methoxy-1-methyl-1H-benzimidazol-2-ylmethoxy)benzyl]thiazolidine-2,4-dione], the Oral absorptivity [1] is listed as “excellent oral absorptivity” and the “Solubility in comparison with the free form” value [2] is listed as “remarkable elevation of solubility”.

In the case of `COc1ccc2nc(COc3ccc(CC4SC(=O)NC4=O)cc3)n(C)c2c1` (centres unmarked) [Present compound, 5-[4-(6-methoxy-1-methyl-1H-benzimidazol-2-ylmethoxy)benzyl]thiazolidine-2,4-dione], the “Improvement ratio (%)” value ([3]; 0.01% eye drop, six times per day for 7 days, calculated from mean total scores with saline control as 0%) is reported as 53%, the “Mean value of total scores” value ([3]; fluorescein staining scores (0-3) of upper, middle and lower cornea summed, 0.01% solution in physiological saline instilled six times per day for 7 days, day 7, mean of 8, normal eye 2.9, control 6.1) is reported as 4.4 and the “Improvement of the corneal damage (in words)” value ([3]; rat dry eye model, 0.01% eye drop) is reported as “markedly improves the corneal damage”.
